Measured values reported in PubChem BioAssay (NCI).
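Grown in 96-well plates, cells were treated for 48 hours with each compound at five concentrations. Insufficient inhibition: endpoint recorded as highest concentration tested. TGI: total growth inhibition.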

How the values were obtained:
Test in all cases: inhibition of tumour cell growth, NCI panel, 48 h
SK-MEL-2 melanoma = tested on: SK-MEL-2 melanoma
NCI-H23 lung = tested on: NCI-H23 lung
HCC-2998 colon = tested on: HCC-2998 colon
ACHN renal = tested on: ACHN renal
OVCAR-3 ovarian = tested on: OVCAR-3 ovarian
NCI-H226 lung = tested on: NCI-H226 lung
HCT-15 colon = tested on: HCT-15 colon
MOLT-4 leukemia = tested on: MOLT-4 leukemia
OVCAR-4 ovarian = tested on: OVCAR-4 ovarian
NCI-H522 lung = tested on: NCI-H522 lung
OVCAR-5 ovarian = tested on: OVCAR-5 ovarian
A549 NSCLC = tested on: A549 NSCLC
UO-31 renal = tested on: UO-31 renal
MCF7 breast = tested on: MCF7 breast
HCT-116 colon = tested on: HCT-116 colon
MDA-N = tested on: MDA-N
KM12 colon = tested on: KM12 colon
DU-145 prostate = tested on: DU-145 prostate
HOP-62 NSCLC = tested on: HOP-62 NSCLC
SR leukemia = tested on: SR leukemia
LOX IMVI melanoma = tested on: LOX IMVI melanoma
EKVX NSCLC = tested on: EKVX NSCLC
BT-549 breast = tested on: BT-549 breast
A498 renal = tested on: A498 renal
OVCAR-8 ovarian = tested on: OVCAR-8 ovarian
COLO 205 colon = tested on: COLO 205 colon
UACC-62 melanoma = tested on: UACC-62 melanoma
RXF 393 renal = tested on: RXF 393 renal
786-0 renal = tested on: 786-0 renal
M14 melanoma = tested on: M14 melanoma
T-47D breast = tested on: T-47D breast
MALME-3M melanoma = tested on: MALME-3M melanoma
NCI-H460 lung = tested on: NCI-H460 lung
UACC-257 melanoma = tested on: UACC-257 melanoma
HS 578T breast = tested on: HS 578T breast
HT29 colon = tested on: HT29 colon
SK-MEL-5 melanoma = tested on: SK-MEL-5 melanoma
IGROV1 ovarian = tested on: IGROV1 ovarian
PC-3 prostate = tested on: PC-3 prostate
SW-620 colon = tested on: SW-620 colon
SF-268 CNS = tested on: SF-268 CNS
MDA-MB-435 = tested on: MDA-MB-435
SK-MEL-28 melanoma = tested on: SK-MEL-28 melanoma
U251 CNS = tested on: U251 CNS
SNB-75 CNS = tested on: SNB-75 CNS
TK-10 renal = tested on: TK-10 renal
SF-295 CNS = tested on: SF-295 CNS
CAKI-1 renal = tested on: CAKI-1 renal
RPMI-8226 leukemia = tested on: RPMI-8226 leukemia
SNB-19 CNS = tested on: SNB-19 CNS
CCRF-CEM leukemia = tested on: CCRF-CEM leukemia
SF-539 CNS = tested on: SF-539 CNS
SN12C renal = tested on: SN12C renal
NCI/ADR-RES ovarian = tested on: NCI/ADR-RES ovarian
SK-OV-3 ovarian = tested on: SK-OV-3 ovarian
MDA-MB-231 breast = tested on: MDA-MB-231 breast
HOP-92 NSCLC = tested on: HOP-92 NSCLC
K-562 leukemia = tested on: K-562 leukemia
HL-60(TB) leukemia = tested on: HL-60(TB) leukemia

With `COC(=O)CCC1=NCC(C)(C)O1` the TGI (SK-MEL-2 melanoma) was greater than 10 µM, the TGI (NCI-H23 lung) was greater than 10 µM and the TGI (HCC-2998 colon) was greater than 10 µM. It also gave a TGI (ACHN renal) greater than 10 µM, a TGI (OVCAR-3 ovarian) greater than 10 µM and a TGI (NCI-H226 lung) greater than 10 µM. It also gave a TGI (HCT-15 colon) greater than 10 µM, a TGI (MOLT-4 leukemia) greater than 10 µM and a TGI (OVCAR-4 ovarian) greater than 10 µM. It also gave a TGI (NCI-H522 lung) greater than 10 µM, a TGI (OVCAR-5 ovarian) greater than 10 µM and a TGI (A549 NSCLC) greater than 10 µM. It also gave a TGI (UO-31 renal) greater than 10 µM, a TGI (MCF7 breast) greater than 10 µM and a TGI (HCT-116 colon) greater than 10 µM. The TGI (MDA-N) was greater than 10 µM, the TGI (KM12 colon) was greater than 10 µM and the TGI (DU-145 prostate) was greater than 10 µM. The TGI (HOP-62 NSCLC) was greater than 10 µM, the TGI (SR leukemia) was greater than 10 µM and the TGI (LOX IMVI melanoma) was greater than 10 µM. It also gave a TGI (EKVX NSCLC) greater than 10 µM, a TGI (BT-549 breast) greater than 10 µM and a TGI (A498 renal) greater than 10 µM. The TGI (OVCAR-8 ovarian) was greater than 10 µM, the TGI (COLO 205 colon) was greater than 10 µM and the TGI (UACC-62 melanoma) was greater than 10 µM. It also gave a TGI (RXF 393 renal) greater than 10 µM, a TGI (786-0 renal) greater than 10 µM and a TGI (M14 melanoma) greater than 10 µM. For the same compound, the TGI (T-47D breast) was greater than 10 µM, the TGI (MALME-3M melanoma) was greater than 10 µM and the TGI (NCI-H460 lung) was greater than 10 µM. The TGI (UACC-257 melanoma) was greater than 10 µM, the TGI (HS 578T breast) was greater than 10 µM and the TGI (HT29 colon) was greater than 10 µM. It also gave a TGI (SK-MEL-5 melanoma) greater than 10 µM, a TGI (IGROV1 ovarian) greater than 10 µM and a TGI (PC-3 prostate) greater than 10 µM. The TGI (SW-620 colon) was greater than 10 µM, the TGI (SF-268 CNS) was greater than 10 µM and the TGI (MDA-MB-435) was greater than 10 µM. It also gave a TGI (SK-MEL-28 melanoma) greater than 10 µM, a TGI (U251 CNS) greater than 10 µM and a TGI (SNB-75 CNS) greater than 10 µM. It also gave a TGI (TK-10 renal) greater than 10 µM, a TGI (SF-295 CNS) greater than 10 µM and a TGI (CAKI-1 renal) greater than 10 µM. For the same compound, the TGI (RPMI-8226 leukemia) was greater than 10 µM, the TGI (SNB-19 CNS) was greater than 10 µM and the TGI (CCRF-CEM leukemia) was greater than 10 µM. For the same compound, the TGI (SF-539 CNS) was greater than 10 µM, the TGI (SN12C renal) was greater than 10 µM and the TGI (NCI/ADR-RES ovarian) was greater than 10 µM. It also gave a TGI (SK-OV-3 ovarian) greater than 10 µM and a TGI (MDA-MB-231 breast) greater than 10 µM.
Work on `CC(=O)c1c(SCCN2CCOCC2)n(-c2ccccc2)c(=S)n(-c2ccccc2)c1=O` yielded a TGI (SK-MEL-2 melanoma) of 39.4 µM, a TGI (HOP-92 NSCLC) of 30.5 µM and a TGI (NCI-H23 lung) greater than 64.5 µM. It also gave a TGI (HCC-2998 colon) of 28.5 µM, a TGI (ACHN renal) of 30.1 µM and a TGI (K-562 leukemia) greater than 94.2 µM. The TGI (OVCAR-3 ovarian) was 29.3 µM, the TGI (NCI-H226 lung) was greater than 73.4 µM and the TGI (HCT-15 colon) was 48.6 µM. It also gave a TGI (MOLT-4 leukemia) greater than 62.9 µM, a TGI (OVCAR-4 ovarian) greater than 68.9 µM and a TGI (NCI-H522 lung) of 48.4 µM. It also gave a TGI (OVCAR-5 ovarian) greater than 100 µM, a TGI (A549 NSCLC) greater than 57.6 µM and a TGI (UO-31 renal) of 27.1 µM. For the same compound, the TGI (MCF7 breast) was 5.31 µM, the TGI (HCT-116 colon) was 30.5 µM and the TGI (MDA-N) was 47.9 µM. For the same compound, the TGI (KM12 colon) was greater than 54.8 µM, the TGI (DU-145 prostate) was 22.7 µM and the TGI (HL-60(TB) leukemia) was 51.9 µM. For the same compound, the TGI (HOP-62 NSCLC) was greater than 65 µM, the TGI (SR leukemia) was greater than 100 µM and the TGI (LOX IMVI melanoma) was 26 µM. It also gave a TGI (EKVX NSCLC) greater than 76.3 µM, a TGI (BT-549 breast) of 43 µM and a TGI (A498 renal) of 26.1 µM. The TGI (OVCAR-8 ovarian) was 39.5 µM, the TGI (COLO 205 colon) was 41.8 µM and the TGI (UACC-62 melanoma) was 29.5 µM. For the same compound, the TGI (RXF 393 renal) was 25.7 µM, the TGI (786-0 renal) was 26.4 µM and the TGI (M14 melanoma) was 30.2 µM. It also gave a TGI (T-47D breast) of 55.5 µM, a TGI (MALME-3M melanoma) of 58.6 µM and a TGI (NCI-H460 lung) of 60.7 µM. For the same compound, the TGI (UACC-257 melanoma) was 29.2 µM, the TGI (HS 578T breast) was greater than 100 µM and the TGI (HT29 colon) was 52.9 µM. The TGI (SK-MEL-5 melanoma) was 34.4 µM, the TGI (IGROV1 ovarian) was 34.6 µM and the TGI (PC-3 prostate) was 32 µM. The TGI (SW-620 colon) was 49.9 µM, the TGI (SF-268 CNS) was 39.7 µM and the TGI (MDA-MB-435) was 33.6 µM. It also gave a TGI (SK-MEL-28 melanoma) of 57.8 µM, a TGI (U251 CNS) greater than 57 µM and a TGI (SNB-75 CNS) greater than 55.1 µM. For the same compound, the TGI (TK-10 renal) was 31.2 µM, the TGI (SF-295 CNS) was greater than 100 µM and the TGI (CAKI-1 renal) was greater than 52.3 µM. The TGI (RPMI-8226 leukemia) was greater than 29.4 µM, the TGI (SNB-19 CNS) was greater than 55.2 µM and the TGI (CCRF-CEM leukemia) was 32.5 µM. It also gave a TGI (SF-539 CNS) of 43.9 µM, a TGI (SN12C renal) of 34.4 µM and a TGI (NCI/ADR-RES ovarian) greater than 100 µM. The TGI (SK-OV-3 ovarian) was greater than 74.2 µM and the TGI (MDA-MB-231 breast) was 37.1 µM.
`Cn1c(=O)c2sc3c4sc5c(=O)n(C)c6ccccc6c5c4sc3c2c2ccccc21` was tested, and the TGI (SK-MEL-2 melanoma) was greater than 100 µM, the TGI (HOP-92 NSCLC) was greater than 100 µM and the TGI (NCI-H23 lung) was greater than 100 µM. It also gave a TGI (HCC-2998 colon) greater than 100 µM, a TGI (ACHN renal) greater than 100 µM and a TGI (K-562 leukemia) greater than 100 µM. The TGI (OVCAR-3 ovarian) was greater than 100 µM, the TGI (NCI-H226 lung) was greater than 100 µM and the TGI (HCT-15 colon) was greater than 100 µM. For the same compound, the TGI (MOLT-4 leukemia) was greater than 100 µM, the TGI (OVCAR-4 ovarian) was greater than 100 µM and the TGI (NCI-H522 lung) was greater than 100 µM. For the same compound, the TGI (OVCAR-5 ovarian) was greater than 100 µM, the TGI (A549 NSCLC) was greater than 100 µM and the TGI (UO-31 renal) was greater than 100 µM. The TGI (MCF7 breast) was greater than 100 µM, the TGI (HCT-116 colon) was greater than 100 µM and the TGI (MDA-N) was greater than 100 µM. It also gave a TGI (KM12 colon) greater than 100 µM, a TGI (DU-145 prostate) greater than 100 µM and a TGI (HL-60(TB) leukemia) greater than 100 µM. For the same compound, the TGI (HOP-62 NSCLC) was greater than 100 µM, the TGI (SR leukemia) was greater than 100 µM and the TGI (EKVX NSCLC) was greater than 100 µM. For the same compound, the TGI (BT-549 breast) was greater than 100 µM, the TGI (A498 renal) was greater than 100 µM and the TGI (OVCAR-8 ovarian) was greater than 100 µM. The TGI (COLO 205 colon) was greater than 100 µM, the TGI (UACC-62 melanoma) was greater than 100 µM and the TGI (RXF 393 renal) was 97.6 µM. The TGI (786-0 renal) was greater than 100 µM, the TGI (M14 melanoma) was greater than 100 µM and the TGI (T-47D breast) was greater than 100 µM. The TGI (MALME-3M melanoma) was greater than 100 µM, the TGI (NCI-H460 lung) was greater than 100 µM and the TGI (UACC-257 melanoma) was greater than 100 µM. It also gave a TGI (HS 578T breast) greater than 100 µM, a TGI (HT29 colon) greater than 100 µM and a TGI (SK-MEL-5 melanoma) greater than 100 µM. For the same compound, the TGI (IGROV1 ovarian) was greater than 100 µM, the TGI (PC-3 prostate) was greater than 100 µM and the TGI (SW-620 colon) was greater than 100 µM. The TGI (SF-268 CNS) was greater than 100 µM, the TGI (MDA-MB-435) was greater than 100 µM and the TGI (SK-MEL-28 melanoma) was greater than 100 µM. For the same compound, the TGI (U251 CNS) was greater than 100 µM, the TGI (SNB-75 CNS) was greater than 100 µM and the TGI (TK-10 renal) was greater than 100 µM. For the same compound, the TGI (CAKI-1 renal) was greater than 100 µM, the TGI (RPMI-8226 leukemia) was greater than 100 µM and the TGI (SNB-19 CNS) was greater than 100 µM. It also gave a TGI (CCRF-CEM leukemia) greater than 100 µM, a TGI (SF-539 CNS) greater than 100 µM and a TGI (SN12C renal) greater than 100 µM. The TGI (NCI/ADR-RES ovarian) was greater than 100 µM, the TGI (SK-OV-3 ovarian) was greater than 100 µM and the TGI (MDA-MB-231 breast) was greater than 100 µM.
